According to Sander's compilation of Henry's law constants (doi:10.1246/bcsj.55.1054):

Assay: Henry solubility constant Hcp at 298.15 K (mol/(m3 Pa))
Details: reference: Sanemasa et al. (1982)

| SMILES | Henry solubility constant Hcp |
| --- | --- |
| Cc1ccccc1C [1,2-dimethylbenzene] | 0.0019 |
| Cc1cc(C)cc(C)c1 [1,3,5-trimethylbenzene] | 0.0011 |
| Cc1cccc(C)c1 [1,3-dimethylbenzene] | 0.0014 |
| Cc1ccc(C)cc1 [1,4-dimethylbenzene] | 0.0013 |
| c1ccccc1 [benzene] | 0.0017 |
| CCc1ccccc1 [ethylbenzene] | 0.0013 |
| Cc1ccccc1 [methylbenzene] | 0.0015 |
| CCCc1ccccc1 [propylbenzene] | 0.00095 |

The remaining lines, values ahead:

| Henry solubility constant Hcp | SMILES |
| --- | --- |
| 0.0024 | Cc1cccc(C)c1C [1,2,3-trimethylbenzene] |
| 0.0016 | Cc1ccc(C)c(C)c1 [1,2,4-trimethylbenzene] |
| 0.00089 | CC(C)c1ccccc1 [(2-propyl)-benzene] |
